Reference: patent US20120040009A1, “PARTICULATE PHARMACEUTICAL COMPOSITION WITH AN OPIOID AND AN OPIOID ANTAGONIST” (priority 2009, published 2012)

Details: non-opioid-dependent patients; intravenous administration of 200 mg morphine

With C=CCN1CC[C@]23c4c5ccc(O)c4O[C@H]2C(=O)CC[C@@]3(O)[C@H]1C5 [naloxone, (5R,9R,13S,14S)-17-allyl-3,14-dihydroxy-4,5-epoxymorphinan-6-on] the “naloxone sufficient to trigger discrete withdrawal symptoms” value was 0.4 mg.
